Results: patent US8202887B2, “2-(substituted-amino)-benzothiazole sulfonamide HIV protease inhibitors” (Janssen R&D Ireland, priority 2006, dated 2012)
Read-outs that look alike come from different tables or passages of the source.

How the values were obtained:
Type in all cases: cell-based
[1] = system: clinically isolated HIV strain C; assay: Cellular anti-viral assay in MT4-LTR-EGFP cells, mutant strain C; settings: for EC50: Human immunodeficiency virus 1, 72 h, read-out: pEC50 virus strain C (converted); for pEC50 virus strain C: MT4-LTR-EGFP cells, three days, GFP signal
Method: (§1) Because of the increasing emergence of drug resistant HIV strains, the present compounds were tested for their potency against clinically isolated HIV strains harboring several mutations. These mutations are associated with resistance to protease inhibitors and result in viruses that show various degrees of phenotypic cross-resistance to the currently commercially available drugs such as for instance saquinavir, ritonavir, nelfinavir, indinavir and amprenavir. The viral strains coded as A, B, C and D contain mutations as indicated below in Table 2.
(§2) The cellular assay was performed according to the following procedure. HIV- or mock-infected MT4-LTR-EGFP cells were incubated for three days in the presence of various concentrations of the compounds according to the invention. Upon infection, the viral tat protein activates the GFP reporter. At the end of the incubation period, the GFP signal was measured. In the virus control samples (in the absence of any inhibitor) the maximal fluorescent signal was obtained. The inhibitory activity of the compound was monitored on the virus-infected cells and was expressed as EC50. These values represent the amount of the compound required to protect 50% of the cells from virus infection. (Table 3).

[2] = system: wild type laboratory HIV strain (WT IIIB-2-001); assay: Cellular anti-viral assay in MT4-LTR-EGFP cells, wild type strain; settings: for EC50: Human immunodeficiency virus 1, IIIB, 72 h, read-out: pEC50 WT-IIIB-2-001 (converted)
Method: The compounds were tested in a cellular assay using the MT4-LTR-EGFP cells for anti-viral activity.
The cellular assay was performed according to the following procedure. HIV- or mock-infected MT4-LTR-EGFP cells were incubated for three days in the presence of various concentrations of the compounds according to the invention. Upon infection, the viral tat protein activates the GFP reporter. At the end of the incubation period, the GFP signal was measured. […] The inhibitory activity of the compound was monitored on the virus-infected cells and was expressed as EC50. These values represent the amount of the compound required to protect 50% of the cells from virus infection.

[3] = system: clinically isolated HIV strain B; assay: Cellular anti-viral assay in MT4-LTR-EGFP cells, mutant strain B; settings: for EC50: Human immunodeficiency virus 1, 72 h, read-out: pEC50 virus strain B (converted); for pEC50 virus strain B: MT4-LTR-EGFP cells, three days, GFP signal
Method: as §1, §2

[4] = system: clinically isolated HIV strain A; assay: Cellular anti-viral assay in MT4-LTR-EGFP cells, mutant strain A; settings: for EC50: Human immunodeficiency virus 1, 72 h, read-out: pEC50 virus strain A (converted); for pEC50 virus strain A: MT4-LTR-EGFP cells, three days, GFP signal
Method: as §1, §2

[5] = system: clinically isolated HIV strain D; assay: Cellular anti-viral assay in MT4-LTR-EGFP cells, mutant strain D; settings: for EC50: Human immunodeficiency virus 1, 72 h, read-out: pEC50 virus strain D (converted); for pEC50 virus strain D: MT4-LTR-EGFP cells, three days, GFP signal
Method: as §1, §2

[6] = MT4-LTR-EGFP cells, three days, GFP signal

SMILES | EC50 [1] [nM] | EC50 [2, 6] [nM] | EC50 [3] [nM] | EC50 [4] [nM] | EC50 [5] [nM] | pEC50 virus strain C [1] | pEC50 virus strain D [5] | pEC50 WT-IIIB-2-001 [2, 6] | pEC50 virus strain B [3] | pEC50 virus strain A [4] | pEC50 WT-IIIB-2-001 [2]
COCCN1CCC(Nc2nc3ccc(S(=O)(=O)N(CC(C)C)C[C@@H](O)[C@H](Cc4ccccc4)NC(=O)O[C@H]4CO[C@H]5OCC[C@H]54)cc3s2)C1 (stereo in doubt) [Compound 17, [1-Benzyl-2-hydroxy-3-(isobutyl-{2-[1-(2-methoxy-ethyl)-pyrrolidin-3-ylamino]-benzothiazole-6-sulfonyl}-amino)-propyl]-carbamic acid hexahydro-furo[2,3-b]furan-3-yl ester] | 3390 | 18.6 | 17 | 13.2 | – | – | – | – | – | – | –
CC(C)CN(C[C@@H](O)[C@H](Cc1ccccc1)NC(=O)O[C@H]1CO[C@H]2OCC[C@H]21)S(=O)(=O)c1ccc2nc(NC3CCN(Cc4cccnc4)C3)sc2c1 (stereo in doubt) [Compound 21, (1-Benzyl-2-hydroxy-3-{isobutyl-[2-(1-pyridin-3-ylmethyl-pyrrolidin-3-ylamino)-benzothiazole-6-sulfonyl}-amino]-propyl)-carbamic acid hexahydro-furo[2,3-b]furan-3-yl ester] | 1820 | 11.2 | 14.5 | 4.9 | 7.08 | – | – | – | – | – | –
CC(C)CN(C[C@@H](O)[C@H](Cc1ccccc1)NC(=O)O[C@H]1CO[C@H]2OCC[C@H]21)S(=O)(=O)c1ccc2nc(NC3CCN(C(C)C)CC3)sc2c1 [Compound 5] | – | – | – | – | – | 5.38 | 7.86 | 7.72 | 7.57 | 7.89 | –
CC(C)CN1CCC(Nc2nc3ccc(S(=O)(=O)N(CC(C)C)C[C@@H](O)[C@H](Cc4ccccc4)NC(=O)O[C@H]4CO[C@H]5OCC[C@H]54)cc3s2)CC1 [Compound 6] | – | – | – | – | – | 5.46 | 7.86 | 8.31 | 7.58 | 7.84 | –
COCCN1CCC(Nc2nc3ccc(S(=O)(=O)N(CC(C)C)C[C@@H](O)[C@H](Cc4ccccc4)NC(=O)O[C@H]4CO[C@H]5OCC[C@H]54)cc3s2)CC1 [Compound 8] | – | – | – | – | – | 5.25 | – | 7.44 | 7.00 | 6.65 | –
CC(C)CN(C[C@@H](O)[C@H](Cc1ccccc1)NC(=O)O[C@H]1CO[C@H]2OCC[C@H]21)S(=O)(=O)c1ccc2nc(NC3CCN(C(=O)CN(C)C)CC3)sc2c1 [Compound 9] | – | – | – | – | – | 5.00 | 6.99 | 6.56 | 6.59 | 6.99 | –
CC(C)CN(C[C@@H](O)[C@H](Cc1ccccc1)NC(=O)O[C@H]1CO[C@H]2OCC[C@H]21)S(=O)(=O)c1ccc2nc(NC3CCN(C(=O)CN4CCOCC4)CC3)sc2c1 [Compound 10] | – | – | – | – | – | 5.11 | 6.62 | 6.53 | 6.52 | 6.84 | –
CC(C)CN(C[C@@H](O)[C@H](Cc1ccccc1)NC(=O)O[C@H]1CO[C@H]2OCC[C@H]21)S(=O)(=O)c1ccc2nc(NC3CCN(Cc4ccccc4)CC3)sc2c1 [Compound 11, (1-Benzyl-3-{[2-(1-benzyl-piperidin-4-ylamino)-benzothiazole-6-sulfonyl]-isobutyl-amino}-2-hydroxy-propyl)-carbamic acid hexahydro-furo[2,3-b]furan-3-yl ester] | 5750 | 2.51 | 33.9 | 22.4 | 18.6 | – | – | – | – | – | –
CC(C)CN(C[C@@H](O)[C@H](Cc1ccccc1)NC(=O)O[C@H]1CO[C@H]2OCC[C@H]21)S(=O)(=O)c1ccc2nc(NC3CCN(Cc4ccncc4)CC3)sc2c1 [Compound 12] | – | – | – | – | – | 5.19 | 8.27 | 8.34 | 7.71 | 8.26 | –
CC(C)CN(C[C@@H](O)[C@H](Cc1ccccc1)NC(=O)O[C@H]1CO[C@H]2OCC[C@H]21)S(=O)(=O)c1ccc2nc(NC3CCN(Cc4ccccn4)CC3)sc2c1 [Compound 13] | – | – | – | – | – | 6.04 | 7.98 | 8.18 | 7.94 | 8.06 | –
CC(C)CN(C[C@@H](O)[C@H](Cc1ccccc1)NC(=O)O[C@H]1CO[C@H]2OCC[C@H]21)S(=O)(=O)c1ccc2nc(NC3CCN(Cc4cccnc4)CC3)sc2c1 [Compound 14] | – | – | – | – | – | 5.90 | 7.84 | – | 7.78 | 7.85 | 7.85
CC(C)CN(C[C@@H](O)[C@H](Cc1ccccc1)NC(=O)O[C@H]1CO[C@H]2OCC[C@H]21)S(=O)(=O)c1ccc2nc(NC3CCN(Cc4cncs4)CC3)sc2c1 [Compound 15] | – | – | – | – | – | 5.46 | 8.24 | – | 7.71 | 8.38 | 8.24
CC(C)CN(C[C@@H](O)[C@H](Cc1ccccc1)NC(=O)O[C@H]1CO[C@H]2OCC[C@H]21)S(=O)(=O)c1ccc2nc(NC3CCNC3)sc2c1 (stereo partly shown) [Compound 16] | – | – | – | – | – | 5.90 | – | 6.82 | 5.89 | 5.93 | –
COCCN1CCC(Nc2nc3ccc(S(=O)(=O)N(CC(C)C)CC(O)C(Cc4ccccc4)NC(=O)OC4COC5OCCC45)cc3s2)C1 (stereo not shown) [Compound 18] | – | – | – | – | – | 5.32 | – | 7.76 | 7.24 | 7.61 | –
CC(C)CN1CCC(Nc2nc3ccc(S(=O)(=O)N(CC(C)C)CC(O)C(Cc4ccccc4)NC(=O)OC4COC5OCCC45)cc3s2)C1 (stereo not shown) [Compound 19] | – | – | – | – | – | 5.35 | 7.75 | 8.42 | 7.33 | 7.84 | –
CC(C)CN1CCC(Nc2nc3ccc(S(=O)(=O)N(CC(C)C)CC(O)C(Cc4ccccc4)NC(=O)OC4COC5OCCC45)cc3s2)C1 (stereo not shown) [Compound 20] | – | – | – | – | – | 5.59 | 8.12 | 8.27 | 7.84 | 8.23 | –
CC(C)CN(CC(O)C(Cc1ccccc1)NC(=O)OC1COC2OCCC12)S(=O)(=O)c1ccc2nc(NC3CCN(Cc4ccncc4)C3)sc2c1 (stereo not shown) [Compound 22] | – | – | – | – | – | 6.19 | – | 7.71 | 7.77 | – | –
CC(C)CN(CC(O)C(Cc1ccccc1)NC(=O)OC1COC2OCCC12)S(=O)(=O)c1ccc2nc(NC3CCN(Cc4cncs4)C3)sc2c1 (stereo not shown) [Compound 23] | – | – | – | – | – | 5.36 | 8.27 | 7.97 | 7.56 | 8.56 | –
CC(C)CN(CC(O)C(Cc1ccccc1)NC(=O)OC1COC2OCCC12)S(=O)(=O)c1ccc2nc(NC3CCN(Cc4cncs4)C3)sc2c1 (stereo not shown) [Compound 24] | – | – | – | – | – | 5.08 | 7.89 | 8.22 | 7.70 | 7.91 | –
CC(C)CN(CC(O)C(Cc1ccccc1)NC(=O)OC1COC2OCCC12)S(=O)(=O)c1ccc2nc(NC3CCN(Cc4ccccn4)C3)sc2c1 (stereo not shown) [Compound 25] | – | – | – | – | – | <4.49 | 5.41 | 5.77 | 5.04 | 5.59 | –
